Data from BigSolDB 2.1.

CCCCCCCCCCCCCCCCCCCCCC(=O)OCCO
solubility (mole fraction) (in 1,1,1-trichloroethane, 287.55 K): 0.0101
solubility (mole fraction) (in 1,1,1-trichloroethane, 290.15 K): 0.0146
solubility (mole fraction) (in 1,1,1-trichloroethane, 293.65 K): 0.0202
solubility (mole fraction) (in 1,1,1-trichloroethane, 296.95 K): 0.0313
solubility (mole fraction) (in 1,1,1-trichloroethane, 299.45 K): 0.043
solubility (mole fraction) (in 1,1,1-trichloroethane, 302.35 K): 0.0571
solubility (mole fraction) (in 1,1,1-trichloroethane, 304.35 K): 0.0718
solubility (mole fraction) (in 1,1,1-trichloroethane, 305.75 K): 0.0958
solubility (mole fraction) (in 1,1,1-trichloroethane, 308.95 K): 0.127
solubility (mole fraction) (in 1,1,1-trichloroethane, 311.75 K): 0.161
solubility (mole fraction) (in 1,1,1-trichloroethane, 318.15 K): 0.259
solubility (mole fraction) (in cyclohexane, 295.95 K): 0.0024
solubility (mole fraction) (in cyclohexane, 300.05 K): 0.0037
solubility (mole fraction) (in cyclohexane, 304.75 K): 0.0102
solubility (mole fraction) (in cyclohexane, 307.15 K): 0.0204
solubility (mole fraction) (in cyclohexane, 308.95 K): 0.041
solubility (mole fraction) (in cyclohexane, 311.05 K): 0.0766
solubility (mole fraction) (in cyclohexane, 312.65 K): 0.108
solubility (mole fraction) (in ethanol, 296.35 K): 0.0001
solubility (mole fraction) (in ethanol, 302.05 K): 0.0002
solubility (mole fraction) (in ethanol, 305.35 K): 0.0003
solubility (mole fraction) (in ethanol, 311.65 K): 0.0007
solubility (mole fraction) (in ethanol, 313.05 K): 0.0009
solubility (mole fraction) (in ethanol, 322.45 K): 0.0131
solubility (mole fraction) (in isobutanol, 295.75 K): 0.0001
solubility (mole fraction) (in isobutanol, 300.35 K): 0.0004
solubility (mole fraction) (in isobutanol, 304.45 K): 0.0018
solubility (mole fraction) (in isobutanol, 304.55 K): 0.0016
solubility (mole fraction) (in isobutanol, 308.45 K): 0.003
solubility (mole fraction) (in isobutanol, 311.55 K): 0.0082
solubility (mole fraction) (in isopropanol, 305.15 K): 0.0003
solubility (mole fraction) (in isopropanol, 306.65 K): 0.0006
solubility (mole fraction) (in isopropanol, 313.15 K): 0.0008
solubility (mole fraction) (in isopropanol, 315.65 K): 0.0015
solubility (mole fraction) (in isopropanol, 319.65 K): 0.0033
solubility (mole fraction) (in isopropanol, 321.65 K): 0.0058
solubility (mole fraction) (in isopropanol, 325.65 K): 0.0069
solubility (mole fraction) (in isopropanol, 326.65 K): 0.0241
solubility (mole fraction) (in n-butanol, 295.85 K): 0.0004
solubility (mole fraction) (in n-butanol, 299.75 K): 0.0006
solubility (mole fraction) (in n-butanol, 304.25 K): 0.001
solubility (mole fraction) (in n-butanol, 307.25 K): 0.0018
solubility (mole fraction) (in n-butanol, 309.25 K): 0.0036
solubility (mole fraction) (in n-propanol, 296.55 K): 0.0002
solubility (mole fraction) (in n-propanol, 299.15 K): 0.0003
solubility (mole fraction) (in n-propanol, 302.85 K): 0.0007
solubility (mole fraction) (in n-propanol, 303.15 K): 0.0008
solubility (mole fraction) (in n-propanol, 306.05 K): 0.0016
solubility (mole fraction) (in n-propanol, 308.85 K): 0.0033
solubility (mole fraction) (in tetrachloroethylene, 297.25 K): 0.0002
solubility (mole fraction) (in tetrachloroethylene, 298.45 K): 0.0003
solubility (mole fraction) (in tetrachloroethylene, 301.95 K): 0.0005
solubility (mole fraction) (in tetrachloroethylene, 303.25 K): 0.0008
solubility (mole fraction) (in tetrachloroethylene, 309.75 K): 0.0028
solubility (mole fraction) (in trichloroethylene, 296.25 K): 0.0089
solubility (mole fraction) (in trichloroethylene, 301.35 K): 0.0177
solubility (mole fraction) (in trichloroethylene, 306.45 K): 0.0406
solubility (mole fraction) (in trichloroethylene, 310.85 K): 0.0804
solubility (mole fraction) (in trichloroethylene, 311.25 K): 0.252
